From patent US6437138B1, “3-pyridyloxymethyl heterocyclic ether compounds useful in controlling chemical synaptic transmission” (priority 1996, dated 2002)
Counter-ions that a name gives are not always drawn. Like-named read-outs stand apart in the source and are kept apart here.

What was measured:
[1] = target: neuronal nicotinic cholinergic channels in IMR-32 cells (Homo sapiens, UniProt P30926+P32297); experiment: 86Rb+ efflux in IMR-32 cells (activation, or inhibition of efflux elicited by (S)-nicotine); assay type: cell-based; conditions: IMR-32; for inhibition at 1 µM / inhibition at 10 µM: inhibition of the efflux elicited by 100 μM (S)-nicotine; for inhibition at 1 µM: single dose 1 μM; for inhibition at 10 µM: single dose 10 μM; for Emax: 86Rb+ efflux, percent relative to the response elicited by 100 μM (S)-nicotine, read-out: IMR-32 maximal response
Excerpt: For the purpose of directly evaluating the ability of test compounds to functionally activate or inhibit certain subtypes of neuronal nicotinic cholinergic channels, an assay to determine ^86Rb^+Efflux in IMR-32 cells was employed (Protocol B below).
B. Protocols for the Determination of Functional Effects of Cholinerzic Channel Receptor Ligands on Synaptic Transmission
Cells of the IMR-32 human neuroblastoma clonal cell line (ATCC, Rockville, Md.) were maintained in a log phase of growth according to established procedures (Lukas, 1993). Experimental cells were seeded at a density of 500,000 cells/ml into a 24-well tissue culture dish. Plated cells were allowed to proliferate for at least 48 hours before loading with 2 μCi/ml of ^86Rb^+ (35 Ci/mmol) overnight at 37° C. The ^86Rb^+ efflux assays were performed according to previously published protocols (Lukas, R. J., J. Pharmacol. Exp. Ther., 265: 294-302, 1993) except serum-free Dulbecco's Modified Eagle's Medium was used during the ^86Rb^+ loading, rinsing, and agonist-induced efflux steps.
EC50 data and maximal responses (reported as percent relative to the response elicited by 100 μM (S)-nicotine) are shown for selected compounds of the invention. The inhibition data (given for a larger number of compounds) reflect inhibition of the efflux elicited by 100 μM (S)-nicotine for either a single dose (% inhibition at 1 μM or at 10 μM) or over a range of doses (IC50 of inhibition). […] This finding is in agreement with the results of others who have linked dopamine release, which is dependent upon the ion flux in synaptic transmission, to binding at nicotinic receptors (cf., for example, Lippiello and Caldwell, U.S. Pat. No. 5,242,935, issued Sep. 7, 1993; Caldwell and Lippiello, U.S. Pat. No. 5,248,690, issued Sep. 28, 1993; and Wonnacott et al., Prog. Brain Res., 79: 157-163 (1989)).

[2] = target: neuronal nicotinic cholinergic channel receptors (Rattus norvegicus, UniProt P09483+P12390); conditions: read-out: Binding Ki
Procedure: A. Protocol For Determination of Nicotinic Cholinergic Channel Receptor Binding Potencies of Ligands
Binding of [^3H]-cytisine ([^3H]-CYT) to nicotinic receptors was accomplished using crude synaptic membrane preparations from whole rat brain (Pabreza et al., Molecular Pharmacol, 1990, 39:9). Washed membranes were stored at −80° C. prior to use. Frozen aliquots were slowly thawed and resuspended in 20 volumes of buffer (containing: 120 mM NaCl, 5 mM KCl, 2 mM MgCl2, 2 mM CaCl2 and 50 mM Tris-Cl, pH 7.4 @ 4° C.). After centrifuging at 20,000×g for 15 minutes, the pellets were resuspended in 30 volumes of buffer. Homogenate (containing 125-150 μg protein) was added to triplicate tubes containing concentrations of test compound and [^3H]-CYT (1.25 nM) in a final volume of 500 μL. Samples were incubated for 60 minutes at 4° C., then rapidly filtered through Whatman GF/B filters presoaked in 0.5% polyethyleneimine using 3×4 mL of ice-cold buffer. The filters are counted in 4 mL of Ecolume® (ICN). Nonspecific binding was determined in the presence of […] (−)-nicotine and values were expressed as a percentage of total binding.

[3] = displacement of [3H]-cytisine (1.25 nM), whole rat brain membranes, Ki from IC50 by Cheng and Prusoff correction

neuronal nicotinic cholinergic channel receptors, sequence (P09483 31-630): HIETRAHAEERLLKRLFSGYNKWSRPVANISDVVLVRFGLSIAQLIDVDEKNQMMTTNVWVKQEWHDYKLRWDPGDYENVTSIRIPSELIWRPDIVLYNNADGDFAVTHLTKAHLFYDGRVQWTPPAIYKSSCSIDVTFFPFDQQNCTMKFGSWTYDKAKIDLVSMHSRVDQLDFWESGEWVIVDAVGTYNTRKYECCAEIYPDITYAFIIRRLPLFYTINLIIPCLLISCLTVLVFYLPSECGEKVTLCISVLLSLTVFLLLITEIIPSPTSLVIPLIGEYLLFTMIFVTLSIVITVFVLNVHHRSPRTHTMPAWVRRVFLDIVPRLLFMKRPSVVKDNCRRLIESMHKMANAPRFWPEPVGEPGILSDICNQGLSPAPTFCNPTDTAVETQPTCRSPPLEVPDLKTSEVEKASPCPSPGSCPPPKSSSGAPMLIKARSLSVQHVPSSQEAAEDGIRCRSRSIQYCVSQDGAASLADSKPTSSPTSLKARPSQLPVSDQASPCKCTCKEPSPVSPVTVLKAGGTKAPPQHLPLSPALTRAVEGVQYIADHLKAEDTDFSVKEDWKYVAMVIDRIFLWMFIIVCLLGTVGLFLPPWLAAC
neuronal nicotinic cholinergic channel receptors, sequence (P12390 25-500): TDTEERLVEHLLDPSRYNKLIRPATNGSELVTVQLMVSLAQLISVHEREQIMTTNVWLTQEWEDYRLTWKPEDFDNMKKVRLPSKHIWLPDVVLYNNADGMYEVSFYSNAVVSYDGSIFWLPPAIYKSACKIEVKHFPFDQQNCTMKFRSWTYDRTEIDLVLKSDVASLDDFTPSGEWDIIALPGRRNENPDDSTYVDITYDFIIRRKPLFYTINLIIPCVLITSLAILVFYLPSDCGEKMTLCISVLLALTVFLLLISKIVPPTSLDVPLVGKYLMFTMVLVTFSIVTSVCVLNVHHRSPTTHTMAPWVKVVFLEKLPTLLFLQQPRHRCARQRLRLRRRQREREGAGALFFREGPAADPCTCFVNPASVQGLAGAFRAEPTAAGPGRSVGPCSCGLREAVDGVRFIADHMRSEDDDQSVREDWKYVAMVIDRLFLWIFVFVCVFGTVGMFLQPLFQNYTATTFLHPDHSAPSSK

| SMILES | melting point | inhibition at 1 µM [1] | Emax [1] | other results |
| --- | --- | --- | --- | --- |
| Cl.Cl.Clc1ncc(OC[C@@H]2CCCN2)cc1Br [Example 23, 5-Bromo-6-chloro-3-(2-(S)-pyrrolidinylmethoxy)pyridine Dihydrochloride] | 264 to 268 °C | 27% | – | – |
| CN1CCC[C@H]1COc1cncc(-c2ccccc2C=O)c1 [Example 44, 5-(2-Formylphenyl)-3-(1-methyl-2-(S)-pyrrolidinylmethoxy)pyridine Dihydrochloride] | – | 30% | – | Ki [2, 3]: 0.56 nM; inhibition at 10 µM [1]: 97% |
| CN1CCC[C@H]1COc1cncc(-c2cncnc2)c1.Cl.Cl [Example 25, 5-(5-Pyrimidinyl)-3-(1-methyl-2-(S)-pyrrolidinylmethoxy)pyridine Dihydrochloride] | 205 to 220 °C | – | 4.5% | – |
| CN1CCC[C@H]1COc1cncc(/C=C/c2ccccc2)c1 [Example 18, 5-trans-(2-Phenylethenyl)-3-(1-methyl-2-(S)-pyrrolidinylmethoxy)pyridine Dihydrochloride] | – | 43% | – | Ki [2, 3]: 0.24 nM |
| COc1ccc(-c2cncc(OC[C@@H]3CCCN3C)c2)cc1 [Example 3, 5-(4-Methoxyphenyl)-3-(1-methyl-2-(S)-pyrrolidinylmethoxy)pyridine Dihydrochloride] | – | 39% | – | Ki [2, 3]: 0.32 nM |
| Cl.Cl.c1ccc(-c2cncc(OC[C@H]3CCCN3)c2)cc1 [Example 52, 5-Phenyl-3-(2-(R)-pyrrolidinylmethoxy)pyridine Dihydrochloride] | 129 to 131 °C | 22% | – | inhibition at 10 µM [1]: 88% |
| CN1CCC[C@H]1COc1cnc(Cl)c(Br)c1.Cl.Cl [Example 24, 5-Bromo-6-chloro-3-(1-methyl-2-(S)-pyrrolidinylmethoxy)pyridine Dihydrochloride] | 189 to 191 °C | 17% | – | – |
| Cl.Cl.Clc1ncc(OC[C@@H]2CCCN2)cc1-c1ccccc1 [Example 84, 5-Phenyl-6-chloro-3-(2-(S)-pyrrolidinylmethoxy)pyridine Dihydrochloride] | 75 to 80 °C | – | 37% | – |
| CN1CCC[C@H]1COc1cncc(-c2cccnc2)c1.Cl.Cl [Example 7, 5-(3-Pyridyl)-3-(1-methyl-2-(S)-pyrrolidinylmethoxy)pyridine Dihydrochloride] | 155 to 160 °C | – | – | Ki [2, 3]: 0.27 nM |
| CN1CCC[C@@H]1COc1cncc(-c2ccccc2)c1.Cl.Cl [Example 53, 5-Phenyl-3-(1-methyl-2-(R)-pyrrolidinylmethoxy)pyridine Dihydrochloride] | 89 to 90 °C | 35% | – | inhibition at 10 µM [1]: 100% |
| Cc1ccc(C#Cc2cncc(OC[C@@H]3CCCN3C)c2)cc1.Cl.Cl [Example 48, 5-(2-(4-Methylphenyl)ethynyl)-3-(1-methyl-2-(S)-pyrrolidinylmethoxy)pyridine Dihydrochloride] | 197 to 199 °C | 40% | – | – |
| CN1CCC[C@H]1COc1cnc(Cl)c(-c2ccccc2)c1.Cl.Cl [Example 26, 5-Phenyl-6-chloro-3-(1-methyl-2-(S)-pyrrolidinylmethoxy)pyridine Dihydrochloride] | 180 to 183 °C | 47% | – | – |
| C=Cc1cc(OC[C@@H]2CCN2)cnc1Cl.Cl.Cl [Example 165, 3-(2-(S)-Azetidinylmethoxy)-6-chloro-5-ethenylpyridine Dihydrochloride] | 121 °C (dec.) | – | 127% | – |
| Cl.Cl.Clc1ncc(OC[C@@H]2CCCN2)cc1C=Cc1ccncc1 [Example 33, 5-(2-(4-Pyridinyl)ethenyl)-6-chloro-3-(2-(S)-pyrrolidinylmethoxy)pyridine Dihydrochloride] | 235 to 240 °C | – | 47% | – |
| CN1CCC[C@H]1COc1cncc(C=CC=CC(C)(C)C)c1.Cl.Cl [Example 30, 5-(5,5-Dimethyl-1,3-hexadienyl)-3-(1-methyl-2-(S)-pyrrolidinylmethoxy)pyridine Dihydrochloride] | 148 to 150 °C | 21% | – | inhibition at 10 µM [1]: 90% |
| CN1CCC[C@@H]1COc1cnc(Cl)c(-c2cncnc2)c1 [Example 180, 6-Chloro-3-(1-methyl-2-(R)-pyrrolidinylmethoxy)-5-pyrimidinylpyridine Hydrochloride] | – | – | – | Ki [2, 3]: 4.8 nM |
| CN1CCC[C@H]1COc1cncc(-c2ccccc2)c1.Cl.Cl [Example 90, 5-Phenyl-3-(1-methyl-2-(S)-pyrrolidinylmethoxy)pyridine Dihydrochloride] | 88 to 90 °C | – | – | Ki [2, 3]: 0.111 nM |
| Cl.Cl.c1ccc(-c2cncc(OC[C@@H]3CCCN3)c2)cc1 [Example 51, 5-Phenyl-3-(2-(S)-pyrrolidinylmethoxy)pyridine Dihydrochloride] | 134 to 136 °C | 42% | – | – |
| C=Cc1cc(OC[C@@H]2CCCN2)cnc1C=C.Cl [Example 193, 5,6-Diethenyl-3-(2-(S)-pyrrolidinylmethoxy)pyridine Hydrochloride] | 186 to 188 °C | – | 9.5% | – |
| Cl.Cl.Cl.c1cc(CCc2cncc(OC[C@H]3CCCN3)c2)ccn1 [Example 87, 5-(2-(4-Pyridinyl)ethyl)-3-(2-(R)-pyrrolidinylmethoxy)pyridine Trihydrochloride] | 178 to 180 °C | – | 40% | – |
| CN1CC[C@H]1COc1cncc(-c2ccccc2)c1.Cl.Cl [Example 57, 5-Phenyl-3-(1-methyl-2-(S)-azetidinylmethoxy)pyridine Dihydrochloride] | 120 to 122 °C | 21% | – | – |
| C=Cc1cc(OC[C@@H]2CCCN2)cnc1Cl.Cl [Example 191, 6-Chloro-5-ethenyl-3-(2-(S)-pyrrolidinylmethoxy)pyridine Hydrochloride] | 195 to 197 °C | – | 106% | – |
| CN1CCC[C@H]1COc1cncc(C#CCCCC#N)c1 [Example 14, (5-(5-Cyano-1-pentynyl-3-(1-methyl-2-(S)-pyrrolidinylmethoxy)pyridine Dihydrochloride] | – | 50% | – | – |
| O=C(NCc1cc(OC[C@@H]2CCN2)cnc1Cl)c1ccccc1 [Example 92, 3-(2-(S)-Azetidinylmethoxy)-5-(N-benzoylamino)methyl-6-chloropyridine Hydrochloride] | – | – | 25% | – |
| CCCCC#Cc1cncc(OC[C@@H]2CCCN2C)c1 [Example 4, 5-Hexynyl-3-(1-methyl-2-(S)-pyrrolidinylmethoxy)pyridine Dihydrochloride] | – | 55% | – | – |
| CN1CC[C@@H]1COc1cncc(-c2ccsc2)c1 [Example 91, 5-(3-Thienyl)-3-(1-methyl-2-(R)-azetdinylmethoxy)pyridine Dihydrochloride] | – | – | – | Ki [2]: 1.84 nM |
| C=CCc1cc(OC[C@@H]2CCCN2)cnc1Cl [Example 183, 5-Allyl-6-chloro-3-(2-(S)-pyrrolidinylmethoxy)pyridine Hydrochloride] | – | – | 110% | – |
| Clc1ncc(OC[C@@H]2CCN2)cc1C=Cc1ccncc1 [Example 89, 5-(2-(4-Pyridinyl)ethenyl)-6-chloro-3-(2-(S)-azetidnylmethoxy)pyridine Citric Acid Salt] | – | – | 72% | – |
| CN1CCC[C@H]1COc1cncc(C=Cc2ccncc2)c1 [Example 13, 5-(2-(4-Pyridinyl)ethenylyl)-3-((1-methyl-2-(S)-pyrrolidinylmethoxy)pyridine Triihydrochloride] | – | 50% | – | – |
| CCCCCCC#Cc1cncc(OC[C@@H]2CCCN2C)c1 [Example 49, 5-Octynyl-3-(1-methyl-2-(S)-pyrrolidinylmethoxy)pyridine Dihydrochloride] | – | 33% | – | – |
